The data set is described as follows: recombinant UMI read abundance after kanamycin selection (control-corrected) (log10(CPM+1)); higher = more efficient recombination; extreme values may be limits of the assay; sequences stand for … in AGTGCAGAGAAAATCGGCCAGTTTTCTCTGCCTGCAGTCCGCATGCCGTGGGACCCCTTGGGTTCTAACCTGTTGCCTAGATTTATGCAGCGGACTGCCTTTCTCCCAAAGTGATAAACCGG…AGGTTGGTTTCACT; site = the 11-nt donor. The procedure, abridged: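 Values are reported as log10(CPM+1), obtained by converting sequencing counts to CPM, averaging replicates and scaling by control-derived factors. The counts came from recombinant UMIs amplified by PCR across the donor–target junction. These UMIs came from a pooled Escherichia coli screen of donor and donor-binding-loop pairs for the IS621 bridge recombinase, plated with IPTG (0.07 mM) plus kanamycin or left unselected, in two replicates each.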
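Further: IS621 bridge recombinase in Escherichia coli cells against a fixed T5 target plasmid.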

Turning to “AGAACTACATGGACCGGTTTTCCCGGTAATCCGTATTTGAC (site AGCACTACTGT)”, the “recombinant UMI read abundance (log10)” value was found to be 0.

“AGAACTACATGGACCGGTTTTCCCGGTAATCCGTATTTGAC (site AGGACTACTGT)”: the “recombinant UMI read abundance (log10)” value is 0.849.

Turning to “AGAACTACATGGACCGGTTTTCCCGGTAATCCGTATTTGAC (site AGTACTACTGT)”, the “recombinant UMI read abundance (log10)” value worked out at 1.37.

With “AGAAGAGCATGGACCGGTTTTCCCGGTAATCCGTATTTGGA (site AGAAGAGCTTC)”, the “recombinant UMI read abundance (log10)” value was 1.81.

For the sequence “AGAAGGGCATGGACCGGTTTTCCCGGTAATCCGTATTTGAG (site AGAAGGGCTCT)”, the “recombinant UMI read abundance (log10)” value was determined as 1.64.

“AGAAGGGCATGGACCGGTTTTCCCGGTAATCCGTATTTGCT (site AGAAAGGCTAG)”: the “recombinant UMI read abundance (log10)” value was 1.73.

As for “AGAAGGGCATGGACCGGTTTTCCCGGTAATCCGTATTTGCT (site AGAACGGCTAG)”, the “recombinant UMI read abundance (log10)” value was 0.0144.

As to “AGAAGGGCATGGACCGGTTTTCCCGGTAATCCGTATTTGCT (site AGAAGGGCTAG)”, the “recombinant UMI read abundance (log10)” value was 2.64.

For “AGAAGGGCATGGACCGGTTTTCCCGGTAATCCGTATTTGCT (site AGAATGGCTAG)”, the “recombinant UMI read abundance (log10)” value stood at 0.25.

Consider “AGAAGTCCATGGACCGGTTTTCCCGGTAATCCGTATTTGAA (site AGAAGTCCTTT)”, for which the “recombinant UMI read abundance (log10)” value was 1.33.

On to “AGACAATCATGGACCGGTTTTCCCGGTAATCCGTATTTGAG (site AGACAATCTCT)”, for which the “recombinant UMI read abundance (log10)” value came to 2.98.

As for “AGACAATCATGGACCGGTTTTCCCGGTAATCCGTATTTGTA (site AGACAATCTTA)”, the “recombinant UMI read abundance (log10)” value was 2.63.

On to “AGACACTCATGGACCGGTTTTCCCGGTAATCCGTATTTGGT (site AGACACTCTAC)”, for which the “recombinant UMI read abundance (log10)” value was determined as 2.78.

Regarding “AGACAGTCATGGACCGGTTTTCCCGGTAATCCGTATTTGAT (site AGACAGTCTAT)”, the “recombinant UMI read abundance (log10)” value was determined as 2.94.

Regarding “AGACATCCATGGACCGGTTTTCCCGGTAATCCGTATTTGAC (site AAACATCCTGT)”, the “recombinant UMI read abundance (log10)” value was 0.

On to “AGACATCCATGGACCGGTTTTCCCGGTAATCCGTATTTGAC (site ACACATCCTGT)”, for which the “recombinant UMI read abundance (log10)” value stood at 0.237.

In the case of “AGACATCCATGGACCGGTTTTCCCGGTAATCCGTATTTGAC (site AGACATCCTGT)”, the “recombinant UMI read abundance (log10)” value was 0.

As to “AGACATCCATGGACCGGTTTTCCCGGTAATCCGTATTTGAC (site ATACATCCTGT)”, the “recombinant UMI read abundance (log10)” value came out at 0.

As to “AGACATGCATGGACCGGTTTTCCCGGTAATCCGTATTTGCC (site AGACATGCTGG)”, the “recombinant UMI read abundance (log10)” value amounted to 3.01.

Regarding “AGACGAACATGGACCGGTTTTCCCGGTAATCCGTATTTGTC (site AAACGAACTGA)”, the “recombinant UMI read abundance (log10)” value is 0.

Take “AGACGAACATGGACCGGTTTTCCCGGTAATCCGTATTTGTC (site ACACGAACTGA)”: the “recombinant UMI read abundance (log10)” value was found to be 0.

As for “AGACGAACATGGACCGGTTTTCCCGGTAATCCGTATTTGTC (site AGACGAACTGA)”, the “recombinant UMI read abundance (log10)” value was 1.35.

As to “AGACGAACATGGACCGGTTTTCCCGGTAATCCGTATTTGTC (site ATACGAACTGA)”, the “recombinant UMI read abundance (log10)” value turned out to be 0.731.

As for “AGACGGGCATGGACCGGTTTTCCCGGTAATCCGTATTTGTC (site AGACGGGCTGA)”, the “recombinant UMI read abundance (log10)” value was 2.3.

In the case of “AGAGCATCATGGACCGGTTTTCCCGGTAATCCGTATTTGGT (site AGAGCATCTAC)”, the “recombinant UMI read abundance (log10)” value is 2.89.

As for “AGAGTAACATGGACCGGTTTTCCCGGTAATCCGTATTTGCA (site AGAGTAACTTG)”, the “recombinant UMI read abundance (log10)” value stood at 2.71.

As for “AGAGTATCATGGACCGGTTTTCCCGGTAATCCGTATTTGCA (site AAAGTATCTTG)”, the “recombinant UMI read abundance (log10)” value is 2.57.

On to “AGAGTATCATGGACCGGTTTTCCCGGTAATCCGTATTTGCA (site ACAGTATCTTG)”, for which the “recombinant UMI read abundance (log10)” value stood at 2.7.

“AGAGTATCATGGACCGGTTTTCCCGGTAATCCGTATTTGCA (site AGAGTATCTTG)”: the “recombinant UMI read abundance (log10)” value came to 3.29.

As to “AGAGTATCATGGACCGGTTTTCCCGGTAATCCGTATTTGCA (site ATAGTATCTTG)”, the “recombinant UMI read abundance (log10)” value is 1.83.

As for “AGAGTATCATGGACCGGTTTTCCCGGTAATCCGTATTTGCC (site ACAGTATCTTG)”, the “recombinant UMI read abundance (log10)” value amounted to 0.

For “AGAGTATCATGGACCGGTTTTCCCGGTAATCCGTATTTGCC (site AGAGTATCTGG)”, the “recombinant UMI read abundance (log10)” value was 2.98.

In the case of “AGAGTCACATGGACCGGTTTTCCCGGTAATCCGTATTTGAG (site AGAGTCACTCT)”, the “recombinant UMI read abundance (log10)” value was determined as 2.34.

As for “AGAGTGCCATGGACCGGTTTTCCCGGTAATCCGTATTTGGG (site AGAGTGCCTCC)”, the “recombinant UMI read abundance (log10)” value came to 0.0257.

On to “AGATAATCATGGACCGGTTTTCCCGGTAATCCGTATTTGCG (site AGATAATCTCG)”, for which the “recombinant UMI read abundance (log10)” value was 2.61.

As for “AGATAGACATGGACCGGTTTTCCCGGTAATCCGTATTTGCC (site AGATAGACTGG)”, the “recombinant UMI read abundance (log10)” value turned out to be 3.03.

For “AGATAGACATGGACCGGTTTTCCCGGTAATCCGTATTTGCC (site CGATAGACTGG)”, the “recombinant UMI read abundance (log10)” value worked out at 1.36.

For the sequence “AGATAGACATGGACCGGTTTTCCCGGTAATCCGTATTTGCC (site GGATAGACTGG)”, the “recombinant UMI read abundance (log10)” value was 1.35.

As to “AGATAGACATGGACCGGTTTTCCCGGTAATCCGTATTTGCC (site TGATAGACTGG)”, the “recombinant UMI read abundance (log10)” value came out at 2.34.

“AGATAGGCATGGACCGGTTTTCCCGGTAATCCGTATTTGCT (site AGAAAGGCTAG)”: the “recombinant UMI read abundance (log10)” value came out at 0.622.

For the sequence “AGATAGGCATGGACCGGTTTTCCCGGTAATCCGTATTTGCT (site AGACAGGCTAG)”, the “recombinant UMI read abundance (log10)” value was 2.12.

Consider “AGATAGGCATGGACCGGTTTTCCCGGTAATCCGTATTTGCT (site AGAGAGGCTAG)”, for which the “recombinant UMI read abundance (log10)” value was 0.862.

As to “AGATAGGCATGGACCGGTTTTCCCGGTAATCCGTATTTGCT (site AGATAGGCTAG)”, the “recombinant UMI read abundance (log10)” value worked out at 2.66.

Take “AGATAGGCATGGACCGGTTTTCCCGGTAATCCGTATTTGTA (site AGATAGGCTTA)”: the “recombinant UMI read abundance (log10)” value amounted to 2.52.

Turning to “AGATCCCCATGGACCGGTTTTCCCGGTAATCCGTATTTGTA (site AGATCCCCTTA)”, the “recombinant UMI read abundance (log10)” value turned out to be 0.595.

For the sequence “AGATGAGCATGGACCGGTTTTCCCGGTAATCCGTATTTGCA (site AGATGAGCTTG)”, the “recombinant UMI read abundance (log10)” value stood at 2.71.

For “AGATGTTCATGGACCGGTTTTCCCGGTAATCCGTATTTGTT (site AGATGTTCTAA)”, the “recombinant UMI read abundance (log10)” value was 1.45.

As for “AGATTAGCATGGACCGGTTTTCCCGGTAATCCGTATTTGAT (site AGATTAGCTAT)”, the “recombinant UMI read abundance (log10)” value came out at 2.09.

Consider “AGCAACGCATGGACCGGTTTTCCCGGTAATCCGTATTTGTG (site AGCAACGCTCA)”, for which the “recombinant UMI read abundance (log10)” value was 1.36.

In the case of “AGCAATACATGGACCGGTTTTCCCGGTAATCCGTATTTGCA (site AGCAATACTTG)”, the “recombinant UMI read abundance (log10)” value was determined as 1.73.

In the case of “AGCAATACATGGACCGGTTTTCCCGGTAATCCGTATTTGCA (site AGGAAGACTTG)”, the “recombinant UMI read abundance (log10)” value came out at 0.

On to “AGCACGGCATGGACCGGTTTTCCCGGTAATCCGTATTTGCT (site AGCACGGCTAG)”, for which the “recombinant UMI read abundance (log10)” value turned out to be 1.9.

Take “AGCACTACATGGACCGGTTTTCCCGGTAATCCGTATTTGAC (site AGAACTACTGT)”: the “recombinant UMI read abundance (log10)” value stood at 1.25.

As for “AGCACTACATGGACCGGTTTTCCCGGTAATCCGTATTTGAC (site AGCACTACTGT)”, the “recombinant UMI read abundance (log10)” value came to 1.85.

Take “AGCACTACATGGACCGGTTTTCCCGGTAATCCGTATTTGAC (site AGGACTACTGT)”: the “recombinant UMI read abundance (log10)” value came to 0.927.

Turning to “AGCACTACATGGACCGGTTTTCCCGGTAATCCGTATTTGAC (site AGTACTACTGT)”, the “recombinant UMI read abundance (log10)” value amounted to 0.741.

For “AGCATCCCATGGACCGGTTTTCCCGGTAATCCGTATTTGGC (site AGCATCCCTGC)”, the “recombinant UMI read abundance (log10)” value was 1.74.

For “AGCCAAGCATGGACCGGTTTTCCCGGTAATCCGTATTTGAG (site AACCAAGCTCT)”, the “recombinant UMI read abundance (log10)” value is 0.0428.

As to “AGCCAAGCATGGACCGGTTTTCCCGGTAATCCGTATTTGAG (site ACCCAAGCTCT)”, the “recombinant UMI read abundance (log10)” value amounted to 0.641.

Turning to “AGCCAAGCATGGACCGGTTTTCCCGGTAATCCGTATTTGAG (site AGCCAAGCTCT)”, the “recombinant UMI read abundance (log10)” value was found to be 1.3.

On to “AGCCAAGCATGGACCGGTTTTCCCGGTAATCCGTATTTGAG (site ATCCAAGCTCT)”, for which the “recombinant UMI read abundance (log10)” value was found to be 0.655.

As to “AGCCGCTCATGGACCGGTTTTCCCGGTAATCCGTATTTGAT (site AGCCGCTCTAT)”, the “recombinant UMI read abundance (log10)” value was found to be 1.65.

As for “AGCCGTCCATGGACCGGTTTTCCCGGTAATCCGTATTTGAT (site AACCGTCCTAT)”, the “recombinant UMI read abundance (log10)” value stood at 0.00909.

Turning to “AGCCGTCCATGGACCGGTTTTCCCGGTAATCCGTATTTGAT (site ACCCGTCCTAT)”, the “recombinant UMI read abundance (log10)” value was determined as 0.

Turning to “AGCCGTCCATGGACCGGTTTTCCCGGTAATCCGTATTTGAT (site AGCCGTCCTAT)”, the “recombinant UMI read abundance (log10)” value came out at 1.09.

Take “AGCCGTCCATGGACCGGTTTTCCCGGTAATCCGTATTTGAT (site ATCCGTCCTAT)”: the “recombinant UMI read abundance (log10)” value was determined as 0.0112.

“AGCCTCTCATGGACCGGTTTTCCCGGTAATCCGTATTTGAC (site AGCCTATCTGT)”: the “recombinant UMI read abundance (log10)” value was 0.

Regarding “AGCCTCTCATGGACCGGTTTTCCCGGTAATCCGTATTTGAC (site AGCCTCTCTGT)”, the “recombinant UMI read abundance (log10)” value turned out to be 0.

These data come from the supplement of paper PMC11208160.
